Data on 14 compounds can be found in patent publication US11339167B2, “Substituted piperidines as kinase inhibitors” (Daewoong Pharmaceutical Co., Ltd., priority 2017, dated 2022).

The target of one assay is human BTK (Homo sapiens (Human), UniProt Q06187). Briefly: BTK kinase inhibitory activity, ADP Glo kinase assay.
The target in a further assay is human JAK3 (Homo sapiens (Human), UniProt P52333). Put plainly: JAK3 kinase inhibitory activity, ADP Glo kinase assay. The assay is classed as biochemical. The following applies: recombinant purified human JAK3, ATP 5 uM, Poly(Glu4,Tyr1) peptide, 1 hour 30° C. The protocol: JAK3 and BTK kinases inhibitory activities were measured for the compounds prepared in the Examples through in vitro analysis on the ADP Glow (Glo) platform.
Chain of human JAK3 (P52333 whole entry): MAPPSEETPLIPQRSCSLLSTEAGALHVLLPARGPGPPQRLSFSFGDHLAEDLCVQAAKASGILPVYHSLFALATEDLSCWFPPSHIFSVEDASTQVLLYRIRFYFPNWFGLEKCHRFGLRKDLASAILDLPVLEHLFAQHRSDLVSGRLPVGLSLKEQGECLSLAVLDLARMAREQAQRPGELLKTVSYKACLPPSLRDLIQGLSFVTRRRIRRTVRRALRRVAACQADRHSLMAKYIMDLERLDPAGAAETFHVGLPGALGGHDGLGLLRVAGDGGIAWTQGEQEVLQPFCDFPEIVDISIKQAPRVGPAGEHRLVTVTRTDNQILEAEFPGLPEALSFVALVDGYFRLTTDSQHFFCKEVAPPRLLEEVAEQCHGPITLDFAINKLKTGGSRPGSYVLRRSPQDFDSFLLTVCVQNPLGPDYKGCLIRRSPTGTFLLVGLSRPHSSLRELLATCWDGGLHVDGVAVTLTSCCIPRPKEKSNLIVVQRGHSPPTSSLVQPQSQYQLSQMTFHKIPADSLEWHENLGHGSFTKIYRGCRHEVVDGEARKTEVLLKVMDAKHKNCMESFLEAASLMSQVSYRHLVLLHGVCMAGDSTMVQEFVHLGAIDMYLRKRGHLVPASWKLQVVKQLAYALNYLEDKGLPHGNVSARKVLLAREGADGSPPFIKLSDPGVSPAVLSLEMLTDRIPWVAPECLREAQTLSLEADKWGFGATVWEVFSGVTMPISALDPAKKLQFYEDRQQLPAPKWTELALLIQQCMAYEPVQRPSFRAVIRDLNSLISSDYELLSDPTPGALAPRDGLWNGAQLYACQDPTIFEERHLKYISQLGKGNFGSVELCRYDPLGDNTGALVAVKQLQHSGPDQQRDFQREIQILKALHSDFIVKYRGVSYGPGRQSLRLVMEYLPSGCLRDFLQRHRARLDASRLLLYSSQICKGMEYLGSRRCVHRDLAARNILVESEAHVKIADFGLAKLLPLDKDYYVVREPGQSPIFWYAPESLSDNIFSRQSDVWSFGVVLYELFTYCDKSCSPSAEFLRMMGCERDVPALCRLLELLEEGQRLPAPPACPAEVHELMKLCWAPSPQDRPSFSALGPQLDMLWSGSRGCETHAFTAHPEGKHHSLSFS
Specifically, the inhibitory activities against JAK3 and BTK kinase were measured using a JAK3 kinase assay kit (Promega, V9441) and a BTK kinase assay kit (Promega, V9071) which were purchased from Promega. […] After incubation (30° C.) for 1 hour, equivalent volume (25 uL per reaction) of ADP Glo was added and incubated (30° C.) for 40 minutes at room temperature. Then, a kinase detection reagent (50 uL per reaction) was added and incubated (30° C.) for 30 minutes at room temperature. The kinase activity was measured by chemiluminescence according to the instructions of ADP Glow kinase assay kit, and the inhibitory activity of the compounds according to the present disclosure was calculated.
(ADP-Glo turns the ADP formed in a reaction into a luminescent signal.)

A further assay addresses JAK3 kinase (Mus musculus (Mouse), UniProt Q62137). Briefly: JAK3-mediated cell assay (HT-2/IL-2 assay), STAT5 phosphorylation HTRF. The assay is classed as cell-based. Particulars: STAT5 phosphorylation induced by IL-2 (20 ng/ml, 10 minutes) in HT-2 cells, compound treatment 30 minutes. On the procedure:
The inhibitory activities against JAK3 kinase at the cellular level were measured for the compounds prepared in the Examples through in vitro analysis of STAT5 phosphorylation induced by IL-2 stimulation in HT-2 cells. Specifically, STAT5 phosphorylation was analyzed using HTRF® phospho-STAT5 (Tyr694) assay kit (Cisbio, 64AT5PEG), which was purchased from Cisbio. HT-2 cells were cultured for 2 hours in growth factor-free medium. The cultured HT-2 cells were dispensed into 96-well plates by 50 ul so as to be a density of 2.5×10^5 cells/well. The compounds prepared in the previous Examples were prepared so as to be finally a 0.3% DMSO aqueous solution, and HT-2 cells was treated with the compounds for 30 minutes. After the compound treatment, IL-2 was prepared so as to be finally a concentration of 20 ng/ml, and HT-2 cells was treated for 10 minutes. The cells were then disrupted by treating lysis buffers for 30 minutes. The level of STAT5 phosphorylation was measured according to the instructions of HTRF® phospho-STAT5 assay kit, and the inhibitory activity of the compounds according to the invention was calculated. For the analysis of the results of each compound, Microsoft Excel was used, and IC50 values were calculated by SigmaPlot software.
(In general: TR-FRET usually uses a lanthanide donor and a delayed reading to cut background.)

The mark [1] stands for this setting: read-out: BTK IC50, recombinant purified human BTK, ATP 10 uM, Poly(Glu4,Tyr1) peptide, 1 hour 30° C.

Read-outs that look alike come from different tables or passages of the source. A value given as a limit tells only on which side of the number the result lay.

Chain of JAK3 kinase (Q62137 whole entry): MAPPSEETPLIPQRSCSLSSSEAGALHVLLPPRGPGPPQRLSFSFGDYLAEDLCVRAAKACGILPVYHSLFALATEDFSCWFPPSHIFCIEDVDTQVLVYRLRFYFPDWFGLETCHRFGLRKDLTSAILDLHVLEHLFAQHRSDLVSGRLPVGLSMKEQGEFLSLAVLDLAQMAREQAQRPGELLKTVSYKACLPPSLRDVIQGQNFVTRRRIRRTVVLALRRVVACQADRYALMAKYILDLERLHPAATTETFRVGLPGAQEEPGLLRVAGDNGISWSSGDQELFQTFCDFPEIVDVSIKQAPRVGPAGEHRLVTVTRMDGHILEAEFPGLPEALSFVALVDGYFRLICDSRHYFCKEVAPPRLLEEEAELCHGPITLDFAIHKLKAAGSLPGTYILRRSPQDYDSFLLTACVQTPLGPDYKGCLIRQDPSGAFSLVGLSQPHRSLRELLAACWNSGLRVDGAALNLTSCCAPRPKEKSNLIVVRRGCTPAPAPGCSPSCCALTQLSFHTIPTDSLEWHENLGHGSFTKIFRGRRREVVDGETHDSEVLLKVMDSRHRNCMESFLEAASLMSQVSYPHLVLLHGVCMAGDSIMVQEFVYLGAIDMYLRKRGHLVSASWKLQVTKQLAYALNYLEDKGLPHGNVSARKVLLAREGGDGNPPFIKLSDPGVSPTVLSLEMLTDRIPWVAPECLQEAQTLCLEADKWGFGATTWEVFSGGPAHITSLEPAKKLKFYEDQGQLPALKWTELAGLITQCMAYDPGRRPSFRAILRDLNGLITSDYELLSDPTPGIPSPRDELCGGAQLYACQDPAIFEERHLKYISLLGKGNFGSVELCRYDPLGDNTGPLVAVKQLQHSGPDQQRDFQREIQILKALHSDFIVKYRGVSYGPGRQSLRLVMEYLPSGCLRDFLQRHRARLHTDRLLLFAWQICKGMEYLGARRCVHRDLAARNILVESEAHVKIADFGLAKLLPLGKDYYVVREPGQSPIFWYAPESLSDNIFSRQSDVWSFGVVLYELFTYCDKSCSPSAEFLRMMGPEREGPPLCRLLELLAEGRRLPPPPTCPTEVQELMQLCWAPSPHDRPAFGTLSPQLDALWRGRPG
Chain of human BTK (Q06187 whole entry): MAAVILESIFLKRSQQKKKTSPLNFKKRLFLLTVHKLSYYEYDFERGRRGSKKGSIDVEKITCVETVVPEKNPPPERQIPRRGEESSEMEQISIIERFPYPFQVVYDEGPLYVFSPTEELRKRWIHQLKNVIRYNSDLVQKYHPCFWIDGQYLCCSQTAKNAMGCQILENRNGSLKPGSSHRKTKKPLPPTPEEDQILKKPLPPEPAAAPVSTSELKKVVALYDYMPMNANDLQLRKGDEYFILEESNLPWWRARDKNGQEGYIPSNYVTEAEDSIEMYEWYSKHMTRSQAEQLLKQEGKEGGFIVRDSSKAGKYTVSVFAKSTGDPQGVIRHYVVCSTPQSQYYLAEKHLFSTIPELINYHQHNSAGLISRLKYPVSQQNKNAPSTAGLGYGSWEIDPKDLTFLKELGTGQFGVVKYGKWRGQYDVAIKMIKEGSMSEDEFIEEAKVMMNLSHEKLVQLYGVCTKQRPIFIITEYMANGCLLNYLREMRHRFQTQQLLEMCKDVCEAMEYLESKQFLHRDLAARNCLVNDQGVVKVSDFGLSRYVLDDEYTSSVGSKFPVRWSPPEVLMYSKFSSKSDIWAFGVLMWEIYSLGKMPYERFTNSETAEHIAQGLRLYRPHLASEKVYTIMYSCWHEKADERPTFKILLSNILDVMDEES

The term IC50 denotes the concentration at which inhibition is half-maximal. On to `C=CC(=O)N1CC[C@@H](F)[C@H](Oc2nc(Nc3cnn(CC)c3)nc3[nH]ccc23)C1` (racemic) [Example 1, 1-(trans-3-((2-((1-ethyl-1H-pyrazol-4-yl)amino)-7H-pyrrolo[2,3-d]pyrimidin-4-yl)oxy)-4-fluoropiperidin-1-yl)prop-2-en-1-one], for which the figures for the IC50 on human BTK, at human JAK3 and on JAK3 kinase were 2.4 nM, 0.3 nM and 67.4 nM, respectively.

Turning to `C=CC(=O)N1CC[C@H](F)[C@H](Oc2nc(Nc3cnn(CC)c3)nc3[nH]ccc23)C1` (racemic) [Example 4, 1-(cis-3-((2-((1-ethyl-1H-pyrazol-4-yl)amino)-7H-pyrrolo[2,3-d]pyrimidin-4-yl)oxy)-4-fluoropiperidin-1-yl)prop-2-en-1-one], the figures for the IC50 at human BTK, at human JAK3 and against JAK3 kinase were 4.2 nM, 0.4 nM and 115 nM, respectively.

Consider `C=CC(=O)N1CC[C@@H](F)[C@H](Oc2nc(Nc3cnn(CC)c3)nc3[nH]cc(Cl)c23)C1` (racemic) [Example 9, 1-(trans-3-((5-chloro-2-((1-ethyl-1H-pyrazol-4-yl)amino)-7H-pyrrolo[2,3-d]pyrimidin-4-yl)oxy)-4-fluoropiperidin-1-yl)prop-2-en-1-one], for which the IC50 came to 2.1 nM against human BTK, 0.3 nM on human JAK3 and 72.3 nM at JAK3 kinase.

Turning to `C=CC(=O)N1CC[C@@H](F)[C@H](Oc2nc(Nc3cc(C)ns3)nc3[nH]cc(Cl)c23)C1` (racemic) [Example 11, 1-(trans-3-((5-chloro-2-((3-methylisothiazol-5-yl)amino)-7H-pyrrolo[2,3-d]pyrimidin-4-yl)oxy)-4-fluoropiperidin-1-yl)prop-2-en-1-one], the IC50 was found to be 2.5 nM against human BTK, 0.3 nM on human JAK3 and 96 nM at JAK3 kinase.

In the case of `C=CC(=O)N1CC[C@@H](F)[C@@H](Oc2nc(Nc3cnn(CC)c3)nc3[nH]ccc23)C1` [Example 5, 1-((3S,4R)-3-((2-((1-ethyl-1H-pyrazol-4-yl)amino)-7H-pyrrolo[2,3-d]pyrimidin-4-yl)oxy)-4-fluoropiperidin-1-yl)prop-2-en-1-one], the results for the IC50 on human BTK (setting [1]), on human JAK3 and at JAK3 kinase were 1.5 nM, 0.2 nM and 101 nM, respectively.

With `C=CC(=O)N1CC[C@H](F)[C@@H](Oc2nc(Nc3cnn(CC)c3)nc3[nH]ccc23)C1` [Example 25, 1-((3S,4S)-3-((2-((1-ethyl-1H-pyrazol-4-yl)amino)-7H-pyrrolo[2,3-d]pyrimidin-4-yl)oxy)-4-fluoropiperidin-1-yl)prop-2-en-1-one], the IC50 at human BTK (setting [1]) stood at 1.2 nM; on human JAK3, 0.2 nM; at JAK3 kinase, 32.3 nM.

For `C=CC(=O)N1CC[C@@H](F)[C@@H](Oc2nc(Nc3cnn(CC)c3)nc3[nH]cc(F)c23)C1` [Example 27, 1-((3S,4R)-3-((2-((1-ethyl-1H-pyrazol-4-yl)amino)-5-fluoro-7H-pyrrolo[2,3-d]pyrimidin-4-yl)oxy)-4-fluoropiperidin-1-yl)prop-2-en-1-one], the IC50 on human BTK (setting [1]) was determined as 2.5 nM; on human JAK3 it was 2 nM.

For `C=CC(=O)N1CC[C@H](F)[C@H](Oc2nc(Nc3cnn(CC)c3)nc3[nH]ccc23)C1` [Example 28, 1-((3R,4S)-3-((2-((1-ethyl-1H-pyrazol-4-yl)amino)-7H-pyrrolo[2,3-d]pyrimidin-4-yl)oxy)-4-fluoropiperidin-1-yl)prop-2-en-1-one], the IC50 is above 400 nM on human BTK (setting [1]) and 15.5 nM on human JAK3.

For the compound `C=CC(=O)N1CC[C@H](F)[C@H](Oc2nc(Nc3cnoc3)nc3[nH]ccc23)C1` [Example 29], the half-inhibitory concentration (IC50) at human BTK (setting [1]) was above 400 nM; on human JAK3, 152 nM.

For the compound `C=CC(=O)N1CC[C@@H](F)[C@@H](Oc2nc(Nc3cnn(CCO)c3)nc3[nH]ccc23)C1` [Example 30, 1-((3S,4R)-4-fluoro-3-((2-((1-(2-hydroxyethyl)-1H-pyrazol-4-yl)amino)-7H-pyrrolo[2,3-d]pyrimidin-4-yl)oxy)piperidin-1-yl)prop-2-en-1-one], the IC50 at human BTK (setting [1]) is 2.4 nM; on human JAK3, 0.3 nM.

As for `C=CC(=O)N1CC[C@H](F)[C@H](Oc2nc(Nc3ccc(N4CCOCC4)cc3)nc3[nH]ccc23)C1` [Example 31, 1-((3R,4S)-4-fluoro-3-((2-((4-morpholinophenyl)amino)-7H-pyrrolo[2,3-d]pyrimidin-4-yl)oxy)piperidin-1-yl)prop-2-en-1-one], on human BTK (recombinant purified human BTK, ATP 10 uM, Poly(Glu4,Tyr1) peptide, 1 hour 30° C.), the “BTK IC50” value was “No activity”. Moreover, the IC50 on human JAK3 amounted to 206 nM.

For `C=CC(=O)N1CC[C@H](F)[C@H](Oc2nc(Nc3cc(C)ns3)nc3[nH]ccc23)C1` [Example 32, 1-((3R,4S)-4-fluoro-3-((2-((3-methylisothiazol-5-yl)amino)-7H-pyrrolo[2,3-d]pyrimidin-4-yl)oxy)piperidin-1-yl)prop-2-en-1-one], the IC50 was above 400 nM on human BTK (setting [1]) and 83.6 nM at human JAK3.

For `C=CC(=O)N1CC[C@H](F)[C@H](Oc2nc(Nc3cnn(C4CCOCC4)c3)nc3[nH]ccc23)C1` [Example 33, 1-((3R,4S)-4-fluoro-3-((2-((1-(tetrahydro-2H-pyran-4-yl)-1H-pyrazol-4-yl)amino)-7H-pyrrolo[2,3-d]pyrimidin-4-yl)oxy)piperidin-1-yl)prop-2-en-1-one], the values for the IC50 on human BTK (setting [1]) and at human JAK3 were above 80 nM and 9 nM, respectively.

For the compound `C=CC(=O)N1CC[C@H](F)[C@H](Oc2nc(Nc3ccc4ncsc4c3)nc3[nH]ccc23)C1` [Example 34, 1-((3R,4S)-3-((2-(benzo[d]thiazol-6-ylamino)-7H-pyrrolo[2,3-d]pyrimidin-4-yl)oxy)-4-fluoropiperidin-1-yl)prop-2-en-1-one], the values for the IC50 at human BTK (setting [1]) and on human JAK3 were above 400 nM and above 80 nM, respectively.
